Laboratory results published in ChEMBL document CHEMBL3638734, “5-HT3 receptor modulators, methods of making, and use thereof” (2013).
pKi: −log10 of the molar value.

Target: T1, 5-hydroxytryptamine receptor 3A (Homo sapiens, UniProt P46098)
T1 sequence (P46098 whole entry): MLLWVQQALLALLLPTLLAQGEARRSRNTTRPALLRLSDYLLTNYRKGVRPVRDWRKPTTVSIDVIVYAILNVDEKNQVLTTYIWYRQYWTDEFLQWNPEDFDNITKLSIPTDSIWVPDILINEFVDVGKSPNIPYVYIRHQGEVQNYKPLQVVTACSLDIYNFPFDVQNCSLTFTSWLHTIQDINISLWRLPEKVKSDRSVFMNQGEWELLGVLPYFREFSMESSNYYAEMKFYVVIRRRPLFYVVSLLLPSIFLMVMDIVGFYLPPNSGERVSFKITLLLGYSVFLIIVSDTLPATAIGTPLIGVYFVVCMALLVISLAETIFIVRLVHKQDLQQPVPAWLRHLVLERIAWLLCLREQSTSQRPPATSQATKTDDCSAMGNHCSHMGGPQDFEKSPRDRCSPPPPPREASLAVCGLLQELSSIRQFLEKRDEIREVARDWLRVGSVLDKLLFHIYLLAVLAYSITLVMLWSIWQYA
Assay: Radioligand Binding Assay: The relative affinity of the various compounds for the human 5-HT3 receptor was measured in a radioligand binding assay, using a scintillation proximity assay (SPA) format.

Structure (SMILES)	pKi
O=C1c2cccc3c2c(nn3Cc2ccccc2)CCN1[C@@H]1CN2CCC1CC2	8.70
CC(C)n1nc2c3c(cccc31)C(=O)N([C@@H]1CN3CCC1CC3)CC2	8.70
O=C1c2cccc3[nH]nc(c23)CCN1[C@@H]1CN2CCC1CC2	8.40
O=C1c2cccc3c2c(cn3S(=O)(=O)c2ccccc2)CCN1[C@@H]1CN2CCC1CC2	7.60
CCn1nc2c3c(cccc31)C(=O)N([C@@H]1CN3CCC1CC3)CC2	9.00
O=C1c2cccc3[nH]nc(c23)CCN1[C@H]1CN2CCC1CC2	6.97
Cn1nc2c3c(cccc31)C(=O)N([C@@H]1CN3CCC1CC3)CC2	8.70
